Data from PubChem BioAssay (NCI).
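Growth conditions: 96-well plates. Treatment: test compound, 48 hours, 5 concentrations. Analysis: linear interpolation between bracketing concentrations; unreached endpoints set to highest concentration. TGI marks complete inhibition of growth.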

Experiments:
Experiment in all cases: NCI anticancer screen, dose series, 48 h
[1] = test system: DMS 114 small cell lung
[2] = test system: CCRF-CEM leukemia
[3] = test system: EKVX NSCLC
[4] = test system: KM12 colon
[5] = test system: IGROV1 ovarian
[6] = test system: 786-0 renal
[7] = test system: HOP-92 NSCLC
[8] = test system: DLD-1 colon
[9] = test system: SR leukemia
[10] = test system: SNB-19 CNS
[11] = test system: HCT-116 colon
[12] = test system: MDA-MB-231 breast
[13] = test system: A498 renal
[14] = test system: SK-MEL-5 melanoma
[15] = test system: TK-10 renal
[16] = test system: RPMI-8226 leukemia
[17] = test system: HOP-18 NSCLC
[18] = test system: M19-MEL melanoma
[19] = test system: K-562 leukemia
[20] = test system: SN12C renal
[21] = test system: ACHN renal
[22] = test system: HT29 colon
[23] = test system: SF-539 CNS
[24] = test system: OVCAR-4 ovarian
[25] = test system: UACC-257 melanoma
[26] = test system: PC-3 prostate
[27] = test system: HCC-2998 colon
[28] = test system: NCI-H23 lung
[29] = test system: COLO 205 colon
[30] = test system: HL-60(TB) leukemia
[31] = test system: SNB-78 CNS
[32] = test system: U251 CNS
[33] = test system: HOP-62 NSCLC
[34] = test system: SF-295 CNS
[35] = test system: OVCAR-5 ovarian
[36] = test system: SK-MEL-2 melanoma
[37] = test system: HS 578T breast
[38] = test system: MDA-N
[39] = test system: NCI-H226 lung
[40] = test system: RXF-631 renal
[41] = test system: LXFL 529 NSCLC
[42] = test system: SW-620 colon
[43] = test system: NCI-H522 lung
[44] = test system: MDA-MB-435
[45] = test system: MCF7 breast
[46] = test system: UACC-62 melanoma
[47] = test system: HCT-15 colon
[48] = test system: DU-145 prostate
[49] = test system: SK-MEL-28 melanoma
[50] = test system: MALME-3M melanoma
[51] = test system: MOLT-4 leukemia
[52] = test system: DMS 273 small cell lung
[53] = test system: SNB-75 CNS
[54] = test system: LOX IMVI melanoma
[55] = test system: UO-31 renal
[56] = test system: T-47D breast
[57] = test system: RXF 393 renal
[58] = test system: OVCAR-8 ovarian
[59] = test system: KM20L2 colon
[60] = test system: CAKI-1 renal
[61] = test system: A549 NSCLC
[62] = test system: BT-549 breast
[63] = test system: OVCAR-3 ovarian
[64] = test system: NCI-H460 lung
[65] = test system: M14 melanoma
[66] = test system: SK-OV-3 ovarian
[67] = test system: SF-268 CNS

## CN(C)CCNC(=O)c1cccc2nc3c(ccc4ccccc43)nc12
[1]
  TGI: 8.12 µM
[2]
  TGI: 4.68 µM
[3]
  TGI: 17.8 µM
[4]
  TGI: 6.9 µM
[5]
  TGI: 22.2 µM
[6]
  TGI: 17.6 µM
[7]
  TGI: 17.3 µM
[8]
  TGI: 8.25 µM
[9]
  TGI: 4.25 µM
[10]
  TGI: 18.1 µM
[11]
  TGI: 5.68 µM
[12]
  TGI: 4.12 µM
[13]
  TGI: 15.5 µM
[14]
  TGI: 4.03 µM
[15]
  TGI: 20.6 µM
[16]
  TGI: 6.66 µM
[17]
  TGI: 29.9 µM
[18]
  TGI: 3.02 µM
[19]
  TGI: 4.86 µM
[20]
  TGI: 14.6 µM
[21]
  TGI: 4.34 µM
[22]
  TGI: 4.08 µM
[23]
  TGI: 3.59 µM
[24]
  TGI: 5.27 µM
[25]
  TGI: 3.4 µM
[26]
  TGI: 10.1 µM
[27]
  TGI: 7.18 µM
[28]
  TGI: 15.9 µM
[29]
  TGI: 11.3 µM
[30]
  TGI: 3.98 µM
[31]
  TGI: 19.4 µM
[32]
  TGI: 4.49 µM
[33]
  TGI: 7.88 µM
[34]
  TGI: 14.3 µM
[35]
  TGI: 15 µM
[36]
  TGI: 3.86 µM
[37]
  TGI: 22.8 µM
[38]
  TGI: 3.21 µM
[39]
  TGI: 10.9 µM
[40]
  TGI: 2.43 µM
[41]
  TGI: 14 µM
[42]
  TGI: 3.61 µM
[43]
  TGI: 18.7 µM
[44]
  TGI: 13.7 µM
[45]
  TGI: 3.27 µM
[46]
  TGI: 5.2 µM
[47]
  TGI: 4.6 µM
[48]
  TGI: 16.4 µM
[49]
  TGI: 4.37 µM
[50]
  TGI: 3.05 µM
[51]
  TGI: 1.6 µM
[52]
  TGI: > 100 µM
[53]
  TGI: 16.5 µM
[54]
  TGI: 2.44 µM
[55]
  TGI: 14.9 µM
[56]
  TGI: 20.6 µM
[57]
  TGI: 9.54 µM
[58]
  TGI: 7.84 µM
[59]
  TGI: 3.15 µM
[60]
  TGI: 12.9 µM
[61]
  TGI: 12.2 µM
[62]
  TGI: 22.8 µM
[63]
  TGI: 19.7 µM
[64]
  TGI: 1.91 µM
[65]
  TGI: 11 µM
[66]
  TGI: 24.2 µM
[67]
  TGI: 2.19 µM

## CCCCCCCCCCCCC(=O)CCCCC(=O)O
[1]
  TGI: 42 µM
[2]
  TGI: > 100 µM
[3]
  TGI: > 100 µM
[4]
  TGI: 29.5 µM
[5]
  TGI: 35.3 µM
[6]
  TGI: 84.7 µM
[7]
  TGI: 41.5 µM
[8]
  TGI: 38.1 µM
[9]
  TGI: 47 µM
[10]
  TGI: > 100 µM
[11]
  TGI: 54.6 µM
[13]
  TGI: 36.3 µM
[14]
  TGI: 34.1 µM
[15]
  TGI: > 100 µM
[16]
  TGI: 40.8 µM
[17]
  TGI: 59.3 µM
[18]
  TGI: 38.9 µM
[19]
  TGI: 39.8 µM
[20]
  TGI: 55.8 µM
[21]
  TGI: 73.7 µM
[22]
  TGI: 30.7 µM
[23]
  TGI: 36.6 µM
[24]
  TGI: > 100 µM
[25]
  TGI: > 100 µM
[28]
  TGI: > 100 µM
[29]
  TGI: 32.7 µM
[30]
  TGI: 33.4 µM
[31]
  TGI: > 100 µM
[32]
  TGI: 79 µM
[33]
  TGI: 41.9 µM
[34]
  TGI: 51.2 µM
[35]
  TGI: 35.8 µM
[36]
  TGI: 47.4 µM
[39]
  TGI: 59.1 µM
[40]
  TGI: 38.6 µM
[41]
  TGI: 35.3 µM
[42]
  TGI: > 100 µM
[43]
  TGI: 42.1 µM
[46]
  TGI: 36.1 µM
[49]
  TGI: 46.5 µM
[50]
  TGI: 43.6 µM
[51]
  TGI: 35.7 µM
[52]
  TGI: > 100 µM
[53]
  TGI: 71.1 µM
[54]
  TGI: 46.6 µM
[55]
  TGI: 60 µM
[57]
  TGI: > 100 µM
[58]
  TGI: 39.7 µM
[60]
  TGI: > 100 µM
[61]
  TGI: 44.6 µM
[63]
  TGI: > 100 µM
[64]
  TGI: 39.1 µM
[65]
  TGI: 33.6 µM
[66]
  TGI: > 100 µM
[67]
  TGI: 71.6 µM

## NCCCNC(=O)c1csc(NC(=O)c2csc(NC(=O)CCCN)n2)n1
[1]
  TGI: > 100 µM
[2]
  TGI: > 100 µM
[3]
  TGI: > 100 µM
[4]
  TGI: > 100 µM
[5]
  TGI: > 100 µM
[6]
  TGI: > 100 µM
[7]
  TGI: > 100 µM
[8]
  TGI: > 100 µM
[9]
  TGI: > 100 µM
[11]
  TGI: > 100 µM
[13]
  TGI: > 100 µM
[14]
  TGI: > 100 µM
[15]
  TGI: > 100 µM
[16]
  TGI: > 100 µM
[17]
  TGI: > 100 µM
[18]
  TGI: > 100 µM
[19]
  TGI: > 100 µM
[20]
  TGI: > 100 µM
[21]
  TGI: > 100 µM
[22]
  TGI: > 100 µM
[23]
  TGI: > 100 µM
[24]
  TGI: 44 µM
[25]
  TGI: > 100 µM
[27]
  TGI: > 100 µM
[28]
  TGI: > 100 µM
[29]
  TGI: > 100 µM
[30]
  TGI: > 100 µM
[31]
  TGI: > 100 µM
[32]
  TGI: > 100 µM
[33]
  TGI: > 100 µM
[34]
  TGI: > 100 µM
[35]
  TGI: > 100 µM
[36]
  TGI: > 100 µM
[39]
  TGI: > 100 µM
[40]
  TGI: > 100 µM
[41]
  TGI: > 100 µM
[43]
  TGI: > 100 µM
[46]
  TGI: > 100 µM
[47]
  TGI: > 100 µM
[49]
  TGI: > 100 µM
[50]
  TGI: > 100 µM
[51]
  TGI: > 100 µM
[52]
  TGI: > 100 µM
[53]
  TGI: > 100 µM
[55]
  TGI: > 100 µM
[58]
  TGI: > 100 µM
[59]
  TGI: > 100 µM
[60]
  TGI: > 100 µM
[61]
  TGI: > 100 µM
[63]
  TGI: > 100 µM
[64]
  TGI: > 100 µM
[65]
  TGI: > 100 µM
[66]
  TGI: > 100 µM
[67]
  TGI: > 100 µM

## COc1cc2c(c(OC)c1OC)CCNC2C1=C(O)COC1=O (stereo not given)
[1]
  TGI: > 100 µM
[2]
  TGI: > 100 µM
[4]
  TGI: > 100 µM
[5]
  TGI: > 100 µM
[6]
  TGI: > 100 µM
[7]
  TGI: > 100 µM
[8]
  TGI: > 100 µM
[9]
  TGI: > 100 µM
[10]
  TGI: > 100 µM
[11]
  TGI: > 100 µM
[13]
  TGI: > 100 µM
[14]
  TGI: > 100 µM
[15]
  TGI: > 100 µM
[16]
  TGI: > 100 µM
[17]
  TGI: > 100 µM
[18]
  TGI: > 100 µM
[19]
  TGI: > 100 µM
[20]
  TGI: > 100 µM
[21]
  TGI: > 100 µM
[22]
  TGI: > 100 µM
[23]
  TGI: > 100 µM
[24]
  TGI: > 100 µM
[25]
  TGI: > 100 µM
[27]
  TGI: > 100 µM
[29]
  TGI: > 100 µM
[30]
  TGI: > 100 µM
[31]
  TGI: > 100 µM
[32]
  TGI: > 100 µM
[33]
  TGI: > 100 µM
[34]
  TGI: > 100 µM
[35]
  TGI: > 100 µM
[36]
  TGI: > 100 µM
[39]
  TGI: 99.5 µM
[40]
  TGI: > 100 µM
[41]
  TGI: > 100 µM
[42]
  TGI: > 100 µM
[43]
  TGI: > 100 µM
[46]
  TGI: > 100 µM
[47]
  TGI: > 100 µM
[50]
  TGI: > 100 µM
[51]
  TGI: > 100 µM
[52]
  TGI: > 100 µM
[53]
  TGI: > 100 µM
[54]
  TGI: > 100 µM
[55]
  TGI: > 100 µM
[57]
  TGI: > 100 µM
[58]
  TGI: > 100 µM
[59]
  TGI: > 100 µM
[60]
  TGI: > 100 µM
[61]
  TGI: > 100 µM
[64]
  TGI: > 100 µM
[65]
  TGI: > 100 µM
[66]
  TGI: > 100 µM
[67]
  TGI: > 100 µM
